# In PMC4889029 (Chemistry & biology, 2015):
# Where two headings read alike, the source gives them in different places.
# How the values were obtained:
# Test in all cases: in vitro DNA strand exchange assay with recombinant hRAD51
# Assay type in all cases: biochemical
# hRAD51 [1] = molecular target: T1, hRAD51 (Homo sapiens, UniProt Q06609)
# T1 sequence (Q06609 2-339): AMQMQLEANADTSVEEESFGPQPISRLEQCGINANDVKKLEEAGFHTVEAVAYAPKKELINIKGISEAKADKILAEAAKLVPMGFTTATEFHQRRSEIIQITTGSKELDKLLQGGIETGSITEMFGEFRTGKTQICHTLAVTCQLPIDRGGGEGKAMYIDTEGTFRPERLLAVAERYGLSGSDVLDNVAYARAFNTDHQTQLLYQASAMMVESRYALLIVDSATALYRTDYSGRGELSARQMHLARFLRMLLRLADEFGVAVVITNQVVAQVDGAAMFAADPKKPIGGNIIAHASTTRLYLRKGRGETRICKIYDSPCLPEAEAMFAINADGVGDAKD
# hRAD51 [2] = molecular target: T1, hRAD51; remark: listed apart in the source
# hRAD51 [3] = molecular target: T1, hRAD51; remark: listed apart in the source
IC50 (hRAD51 [1]) [µM],Compound,other results
90 ± 2.5,O=S(=O)(O)c1cc(N=C=S)ccc1/C=C/c1ccc(N=C=S)cc1S(=O)(=O)O [DIDS],–
–,"COc1cc(/C=C/c2ccc(O)cc2)cc(OC)c1 [P-ter, E-pterostilbene]",EC50 (hRAD51 [2]): 19.2 ± 2.4 µM
50 ± 5,O=C1C(Cl)=C(N2CCOCC2)C(=O)N1c1ccc(Cl)c(Cl)c1 [RI-1],–
–,O=C(Nc1ccc(Br)cc1)c1ccc(Br)c(S(=O)(=O)NCc2ccccc2)c1 [RS-1],EC50 (hRAD51 [3]): 25 ± 3 µM
